Where two headings read alike, the source gives them in different places.
Assays:
[1] = test system: D2 receptor; conditions: Gao et al., J. Med. Chem. 33:1800 (1990); cited from earlier work
[2] = target: dopamine D1 receptor (Rattus norvegicus, UniProt P18901); assay: Radioligand competition assay, affinity at rat D1 receptors ([3H]SCH23390); type: binding; conditions: radioligand [3H]SCH23390
[3] = target: dopamine D2 receptor (Rattus norvegicus, UniProt P61169); assay: Radioligand competition assay, affinity at rat D2 receptors ([3H]nemonapride); type: binding
Sequence of dopamine D2 receptor (P61169 whole entry): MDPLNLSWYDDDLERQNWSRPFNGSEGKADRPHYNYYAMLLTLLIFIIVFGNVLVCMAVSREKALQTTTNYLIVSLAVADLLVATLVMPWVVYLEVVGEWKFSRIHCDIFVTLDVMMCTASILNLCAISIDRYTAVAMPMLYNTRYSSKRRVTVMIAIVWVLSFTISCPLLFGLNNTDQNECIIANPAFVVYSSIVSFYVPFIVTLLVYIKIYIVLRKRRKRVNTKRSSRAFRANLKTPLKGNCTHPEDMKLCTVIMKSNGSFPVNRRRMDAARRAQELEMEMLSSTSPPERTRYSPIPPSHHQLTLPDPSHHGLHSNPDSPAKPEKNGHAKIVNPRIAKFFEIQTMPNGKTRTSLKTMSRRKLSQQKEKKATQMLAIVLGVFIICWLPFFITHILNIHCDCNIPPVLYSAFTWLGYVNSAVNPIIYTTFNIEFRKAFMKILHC

[4] = following a single dose; cited from earlier work

Sequence of dopamine D1 receptor (P18901 whole entry): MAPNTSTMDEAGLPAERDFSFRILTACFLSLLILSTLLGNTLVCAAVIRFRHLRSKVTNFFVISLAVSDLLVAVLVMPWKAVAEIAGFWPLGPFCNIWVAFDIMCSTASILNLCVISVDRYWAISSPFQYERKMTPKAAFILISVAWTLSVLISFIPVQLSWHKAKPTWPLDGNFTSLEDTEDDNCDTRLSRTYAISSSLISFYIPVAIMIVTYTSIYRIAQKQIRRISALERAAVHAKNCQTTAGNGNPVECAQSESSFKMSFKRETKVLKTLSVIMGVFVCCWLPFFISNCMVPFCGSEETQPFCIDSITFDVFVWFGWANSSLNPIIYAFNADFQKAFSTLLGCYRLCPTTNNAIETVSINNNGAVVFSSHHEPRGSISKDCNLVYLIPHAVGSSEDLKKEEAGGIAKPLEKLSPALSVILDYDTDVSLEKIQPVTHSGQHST

SMILES	D2 receptor affinity and selectivity (in words) [1]	Ki [2] [nM]	other results
CCCN1CCc2cc(OC)cc3c2[C@H]1Cc1ccc(O)c(O)c1-3 [Compound 1c, R(−)-2-methoxy-N-n-propylnorapomorphine]	among the most potent and highly selective agonists for the D2 receptor	–	–
CCCN1CCc2cccc3c2[C@H]1Cc1cccc(O)c1-3 [Compound 2, R(−)-11-hydroxy-N-n-propylnoraporphine]	even higher affinity and selectivity for D2 receptor than apomorphine	–	–
COc1cc2c3c(c1)-c1c(O)cccc1CC3N(C)CC2 (stereo not drawn) [Compound 3, 2-Methoxy-11-hydroxyaporphine]	–	46 ± 2.8	Ki ([3]; rat receptors, radioligand [3H]nemonapride, read-out: Affinity at rat receptors, D2): 235 ± 32 nM
COc1cc2c3c(c1)-c1c(ccc(O)c1O)C[C@H]3N(C)CC2 [Compound 8]	–	6450	Ki [3]: 1.3 ± 0.4 nM
CCCN1CCc2cc(O)cc3c2[C@H]1Cc1ccc(O)c(O)c1-3 [R(−)-2-OH-NPA, R(−)-2-hydroxy-N-n-propylnorapomorphine]	among the most potent and highly selective agonists for the D2 receptor	–	–
CN1CCc2cccc3c2[C@H]1Cc1ccc(O)c(O)c1-3 [apomorphine, R(−)-Apomorphine]	–	–	duration of effects [4]: 40 to 60 min; onset of action [4]: 5 to 15 min
